Assay results as given in ChEMBL document CHEMBL1127938, “The first synthesis of a C-9 carbonyl modified baccatin III derivative and its conversion to novel taxol and taxotere analogues” (1994).

Columns and labels:
[1] = In vitro concentration in […] which reduces the protein concentration by 50% in a microtubule assembly assay expressed as ED50/ED50 taxol; format: functional
[2] = tested on: B16; assay: Compound was tested in vitro inhibition of proliferation against B16 melanoma after a 40h incubation; format: functional, Mus musculus
[3] = In vitro concentration in […] which reduces the protein concentration by 50% in a microtubule assembly assay, relative to taxol (1) and expressed as ED50/ED50 taxol; format: functional
[4] = tested on: B16; assay: Compound was tested in vitro inhibition of proliferation against B16 melanoma after a 40h incubation relative to that of taxol (Taxol=1); format: functional, Mus musculus

| Compound | ED50 ratio [1] | ED50 ratio [2] | ED50 ratio [3] | ED50 ratio [4] |
| --- | --- | --- | --- | --- |
| CC(=O)O[C@H]1C(=O)[C@@]2(C)[C@H]([C@H](OC(=O)c3ccccc3)[C@]3(O)C[C@H](OC(=O)[C@H](O)[C@@H](NC(=O)c4ccccc4)c4ccccc4)C(C)=C1C3(C)C)[C@]1(OC(C)=O)CO[C@@H]1C[C@@H]2O [PACLITAXEL] | 1 | 1 |  |  |
| CC(=O)O[C@@]12CO[C@@H]1C[C@H](O)[C@@]1(C)c3oc(=O)oc3C3=C(C)[C@@H](OC(=O)[C@H](O)[C@@H](NC(=O)OC(C)(C)C)c4ccccc4)C[C@@](O)([C@@H](OC(=O)c4ccccc4)C12)C3(C)C (stereo partly specified) |  |  | 0.5 | 16.4 |
| CC(=O)O[C@@]12CO[C@@H]1C[C@H](O)[C@@]1(C)c3oc(=O)oc3C3=C(C)[C@@H](OC(=O)[C@H](O)[C@@H](NC(=O)c4ccccc4)c4ccccc4)C[C@@](O)([C@@H](OC(=O)c4ccccc4)C12)C3(C)C (stereo partly specified) |  |  | 2.4 | 34.5 |
